Six cell lines from the supplement of paper PMC10307832 can be followed below.

Experiment in all cases: relative viability (nuclei count vs DMSO), 5 days (fraction); higher = more cells survive
Compound in the assay “Alpelisib + Olaparib”: Cc1nc(NC(=O)N2CCC[C@H]2C(N)=O)sc1-c1ccnc(C(C)(C)C(F)(F)F)c1 [Alpelisib] + O=C(c1cc(Cc2n[nH]c(=O)c3ccccc23)ccc1F)N1CCN(C(=O)C2CC2)CC1 [Olaparib] (partner 8 µM)
Put shortly:
(§1)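 For relative viability, nuclei counts in treated wells were divided by those in vehicle wells. Lung cancer cell lines had been pin-tool dosed in 1536-well plates the day after seeding and cultured for 5 days, then fixed and stained in one step (final 0.05% Triton X-100, 1% formaldehyde, 1 ug/ml Hoechst) and imaged at 4×. Doses were one drug alone or a fixed anchor-drug dose plus five library-drug doses (not always all listed) in √10 steps, and values are duplicate-plate medians.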

Compound in the assay “OSI-027 + Dasatinib”: COc1cccc2cc(-c3nc([C@H]4CC[C@H](C(=O)O)CC4)n4ncnc(N)c34)[nH]c12 [OSI-027] + Cc1nc(Nc2ncc(C(=O)Nc3c(C)cccc3Cl)s2)cc(N2CCN(CCO)CC2)n1 [Dasatinib] (partner 0.075 µM)
Put shortly:
as §1

Compound in the assay “Alpelisib + Lapatinib”: Cc1nc(NC(=O)N2CCC[C@H]2C(N)=O)sc1-c1ccnc(C(C)(C)C(F)(F)F)c1 [Alpelisib] + CS(=O)(=O)CCNCc1ccc(-c2ccc3ncnc(Nc4ccc(OCc5cccc(F)c5)c(Cl)c4)c3c2)o1 [Lapatinib] (partner 2 µM)
Put shortly:
as §1

Compound in the assay “Alpelisib + Crizotinib”: Cc1nc(NC(=O)N2CCC[C@H]2C(N)=O)sc1-c1ccnc(C(C)(C)C(F)(F)F)c1 [Alpelisib] + C[C@@H](Oc1cc(-c2cnn(C3CCNCC3)c2)cnc1N)c1c(Cl)ccc(F)c1Cl [Crizotinib] (partner 1 µM)
Put shortly: as §1

As to PC-3 [JPC-3], the relative viability with Alpelisib + Olaparib (first compound 0.04 µM) was determined as 1.23; with Alpelisib + Olaparib (first compound 0.1265 µM) it was 1.1; with Alpelisib + Olaparib (first compound 0.4 µM), 1.24; with Alpelisib + Olaparib (first compound 1.265 µM) it was 0.967; with Alpelisib + Olaparib (first compound 4 µM) it was 1.02; in the assay with OSI-027 + Dasatinib (first compound 0.01 µM), 0.883. Also, the relative viability turned out to be 0.895 with OSI-027 + Dasatinib (first compound 0.03162 µM); 1.03 with OSI-027 + Dasatinib (first compound 0.1 µM); 0.936 in the assay with OSI-027 + Dasatinib (first compound 0.3162 µM); 0.494 with OSI-027 + Dasatinib (first compound 1 µM); 0.438 with Alpelisib + Lapatinib (first compound 0.04 µM); 0.555 in the assay with Alpelisib + Lapatinib (first compound 0.1265 µM). Moreover, the relative viability with Alpelisib + Lapatinib (first compound 0.4 µM) was found to be 0.404; with Alpelisib + Lapatinib (first compound 1.265 µM) it was 0.424; with Alpelisib + Lapatinib (first compound 4 µM) it was 0.394; in the assay with Alpelisib + Crizotinib (first compound 0.04 µM), 1.03; with Alpelisib + Crizotinib (first compound 0.1265 µM) it was 1.05; with Alpelisib + Crizotinib (first compound 0.4 µM), 1.07. Besides, the relative viability in the assay with Alpelisib + Crizotinib (first compound 1.265 µM) came out at 0.901; with Alpelisib + Crizotinib (first compound 4 µM), 0.969.

Take PC-14: the relative viability in the assay with Alpelisib + Olaparib (first compound 0.04 µM) was found to be 0.263; with Alpelisib + Olaparib (first compound 0.1265 µM), 0.348; with Alpelisib + Olaparib (first compound 0.4 µM), 0.512; with Alpelisib + Olaparib (first compound 1.265 µM) it was 0.276; in the assay with Alpelisib + Olaparib (first compound 4 µM) it was 0.295; with OSI-027 + Dasatinib (first compound 0.01 µM), 0.237. In addition, the relative viability was 0.253 with OSI-027 + Dasatinib (first compound 0.03162 µM); 0.241 with OSI-027 + Dasatinib (first compound 0.1 µM); 0.303 with OSI-027 + Dasatinib (first compound 0.3162 µM); 0.197 in the assay with OSI-027 + Dasatinib (first compound 1 µM); 0.358 with Alpelisib + Lapatinib (first compound 0.04 µM); 0.401 in the assay with Alpelisib + Lapatinib (first compound 0.1265 µM). The relative viability in the assay with Alpelisib + Lapatinib (first compound 0.4 µM) is 0.301; with Alpelisib + Lapatinib (first compound 1.265 µM) it was 0.265; with Alpelisib + Lapatinib (first compound 4 µM) it was 0.235; in the assay with Alpelisib + Crizotinib (first compound 0.04 µM), 0.817; with Alpelisib + Crizotinib (first compound 0.1265 µM), 0.893; with Alpelisib + Crizotinib (first compound 0.4 µM), 1.04. The relative viability with Alpelisib + Crizotinib (first compound 1.265 µM) came to 0.842; with Alpelisib + Crizotinib (first compound 4 µM), 0.766.

For the cell line RERF-LC-KJ, the relative viability was 0.878 in the assay with Alpelisib + Olaparib (first compound 0.04 µM); 0.894 with Alpelisib + Olaparib (first compound 0.1265 µM); 0.84 with Alpelisib + Olaparib (first compound 0.4 µM); 0.655 with Alpelisib + Olaparib (first compound 1.265 µM); 0.74 with Alpelisib + Olaparib (first compound 4 µM); 0.835 with OSI-027 + Dasatinib (first compound 0.01 µM). Besides, the relative viability with OSI-027 + Dasatinib (first compound 0.03162 µM) is 0.776; with OSI-027 + Dasatinib (first compound 0.1 µM), 0.748; with OSI-027 + Dasatinib (first compound 0.3162 µM) it was 0.557; with OSI-027 + Dasatinib (first compound 1 µM), 0.349; with Alpelisib + Lapatinib (first compound 0.04 µM) it was 0.795; in the assay with Alpelisib + Lapatinib (first compound 0.1265 µM) it was 0.773. The relative viability with Alpelisib + Lapatinib (first compound 0.4 µM) came out at 0.867; with Alpelisib + Lapatinib (first compound 1.265 µM) it was 0.64; in the assay with Alpelisib + Lapatinib (first compound 4 µM), 0.735; with Alpelisib + Crizotinib (first compound 0.04 µM), 0.76; with Alpelisib + Crizotinib (first compound 0.1265 µM), 0.77; with Alpelisib + Crizotinib (first compound 0.4 µM), 0.83. Besides, the results for the relative viability with Alpelisib + Crizotinib (first compound 1.265 µM) and with Alpelisib + Crizotinib (first compound 4 µM) were 0.787 and 0.741, respectively.

As for SK-LU-1, the relative viability with Alpelisib + Olaparib (first compound 0.04 µM) is 0.491; in the assay with Alpelisib + Olaparib (first compound 0.1265 µM), 0.472; with Alpelisib + Olaparib (first compound 0.4 µM), 0.532; in the assay with Alpelisib + Olaparib (first compound 1.265 µM), 0.378; with Alpelisib + Olaparib (first compound 4 µM) it was 0.41; with OSI-027 + Dasatinib (first compound 0.01 µM) it was 0.169. The relative viability came to 0.172 with OSI-027 + Dasatinib (first compound 0.03162 µM); 0.178 in the assay with OSI-027 + Dasatinib (first compound 0.1 µM); 0.127 with OSI-027 + Dasatinib (first compound 0.3162 µM); 0.134 with OSI-027 + Dasatinib (first compound 1 µM); 1.07 with Alpelisib + Lapatinib (first compound 0.04 µM); 0.707 in the assay with Alpelisib + Lapatinib (first compound 0.1265 µM). The relative viability in the assay with Alpelisib + Lapatinib (first compound 0.4 µM) worked out at 0.858; with Alpelisib + Lapatinib (first compound 1.265 µM), 0.767; with Alpelisib + Lapatinib (first compound 4 µM), 0.704; in the assay with Alpelisib + Crizotinib (first compound 0.04 µM), 0.987; with Alpelisib + Crizotinib (first compound 0.1265 µM), 0.792; in the assay with Alpelisib + Crizotinib (first compound 0.4 µM), 1.01. In addition, the relative viability came out at 0.773 in the assay with Alpelisib + Crizotinib (first compound 1.265 µM) and 0.763 in the assay with Alpelisib + Crizotinib (first compound 4 µM).

As to SK-MES-1, the relative viability in the assay with Alpelisib + Olaparib (first compound 0.04 µM) came out at 0.616; with Alpelisib + Olaparib (first compound 0.1265 µM), 0.556; in the assay with Alpelisib + Olaparib (first compound 0.4 µM), 0.786; with Alpelisib + Olaparib (first compound 1.265 µM), 0.622; with Alpelisib + Olaparib (first compound 4 µM), 0.544; with OSI-027 + Dasatinib (first compound 0.01 µM) it was 0.293. For the same cell line, the relative viability with OSI-027 + Dasatinib (first compound 0.03162 µM) amounted to 0.407; with OSI-027 + Dasatinib (first compound 0.1 µM) it was 0.295; with OSI-027 + Dasatinib (first compound 0.3162 µM) it was 0.25; with OSI-027 + Dasatinib (first compound 1 µM) it was 0.247; with Alpelisib + Lapatinib (first compound 0.04 µM) it was 0.454; with Alpelisib + Lapatinib (first compound 0.1265 µM) it was 0.463. For the same cell line, the relative viability with Alpelisib + Lapatinib (first compound 0.4 µM) came to 0.483; with Alpelisib + Lapatinib (first compound 1.265 µM), 0.409; with Alpelisib + Lapatinib (first compound 4 µM) it was 0.37; in the assay with Alpelisib + Crizotinib (first compound 0.04 µM), 1.03; with Alpelisib + Crizotinib (first compound 0.1265 µM) it was 0.875; in the assay with Alpelisib + Crizotinib (first compound 0.4 µM), 0.968. In addition, the figures for the relative viability with Alpelisib + Crizotinib (first compound 1.265 µM) and in the assay with Alpelisib + Crizotinib (first compound 4 µM) were 0.83 and 0.67, respectively.

Regarding SW 1573, the relative viability with Alpelisib + Olaparib (first compound 0.04 µM) stood at 0.431; in the assay with Alpelisib + Olaparib (first compound 0.1265 µM) it was 0.455; with Alpelisib + Olaparib (first compound 0.4 µM), 0.406; in the assay with Alpelisib + Olaparib (first compound 1.265 µM), 0.341; with Alpelisib + Olaparib (first compound 4 µM), 0.311; in the assay with OSI-027 + Dasatinib (first compound 0.01 µM), 0.379. In addition, the relative viability was found to be 0.456 with OSI-027 + Dasatinib (first compound 0.03162 µM); 0.477 with OSI-027 + Dasatinib (first compound 0.1 µM); 0.494 in the assay with OSI-027 + Dasatinib (first compound 0.3162 µM); 0.331 with OSI-027 + Dasatinib (first compound 1 µM); 1.06 in the assay with Alpelisib + Lapatinib (first compound 0.04 µM); 1.06 with Alpelisib + Lapatinib (first compound 0.1265 µM). Besides, the relative viability with Alpelisib + Lapatinib (first compound 0.4 µM) came out at 1.06; in the assay with Alpelisib + Lapatinib (first compound 1.265 µM), 1.09; with Alpelisib + Lapatinib (first compound 4 µM), 0.873; in the assay with Alpelisib + Crizotinib (first compound 0.04 µM), 0.867; in the assay with Alpelisib + Crizotinib (first compound 0.1265 µM), 0.784; with Alpelisib + Crizotinib (first compound 0.4 µM), 0.689. The relative viability with Alpelisib + Crizotinib (first compound 1.265 µM) came out at 0.649; with Alpelisib + Crizotinib (first compound 4 µM), 0.593.
